# Results: patent publication US20250034413A1, “METHODS FOR DECELLULARIZING ANIMAL TISSUE AND BIOINKS DERIVED THEREFROM” (VIRGINIA COMMONWEALTH UNIVERSITY, priority 2021, published 2025)
# “Also recorded” adds a separate entry of the source.
# What was measured:
# AGEs in human DMM = test: Reduction of AGEs in human decellularized muscle matrix (DMM) from MTF Biologics; type: biochemical; details: older human samples, 10 mM ALT-711, 37° C., 5 days
# Method: Exemplary method for reducing AGEs in decellularized muscle xi. 10 mM ALT-711 is added to each well, and then placed in the 37° C. incubator for 5 days.
# xii. After 5 days, the samples are washed 3 times with diH20 each, and then the samples are frozen at −80° C.
# In addition, human decellularized muscle from MTF Biologics was also tested for feasibility to reduce AGEs in older human samples using the same protocol as described above.
# [1] = tested on: AGEs in decellularized muscle matrix (DMM); test: Reduction of AGEs in decellularized mouse gastrocnemius muscle matrix (DMM); type: biochemical; details: C57BL6 mouse gastrocnemius, 2-month vs 20-month; 10 mM ALT-711, 37° C., 5 days; FIG. 3
# Method: • i. Gastrocnemius is thawed in a 37° C. water bath and then butterflied. • ii. The muscles are washed in a T-25 flask (standing vertical) with 20 ml of deionized water per well 3 times for 10 minutes each. • iii. Tissue is then treated with 20 ml of 0.25% Trypsin for 12-16 hours in a T-25 flask (standing vertical) on an orbital shaker plate. Use tape to secure the flask in a vertical position. • iv. Trypsin treatment is followed by 3 20 ml 15 minute deionized water washes per well. • v. Tissue is treated with 20 mL of 0.1% TRITON X-100™ in a T-25 flask for 8 hours at 4° C. The volume is replaced with fresh TRITON X-100™ and the tissue is treated for another 16 hours. Treatment is followed by 3 20 ml 15 minute deionized water washes per well. • vi. Samples are placed in 20 mL of 60 mM sodium deoxycholate with 0.6 mM SB-16 for 8 hours in a T-25 flask at 4° C. The volume is replaced with fresh sodium deoxycholate and SB-16 and the tissue is treated for another 16 hours. • vii. Samples are washed as described in deionized water and placed in 20 mL of 70 mM CHAPS for 8 hours in a T-25 mL flask at 4° C. The volume is replaced with fresh CHAPS and the tissue is treated for another 16 hours. • viii. […]
compound,measurement,setting,value
"Cc1sc[n+](CC(=O)c2ccccc2)c1C.[Cl-] [ALT-711, alargebrium chloride 711]",AGEs normalized to protein,AGEs in human DMM; FIG. 4A,reduced AGEs
same,AGEs normalized to hydroxyproline,AGEs in human DMM; FIG. 4B,reduced AGEs
same,level of AGEs in decellularized muscle matrix (DMM),[1],reduced levels of AGEs; also recorded: reduces the higher level of AGEs seen in the 20-month decellularized muscle matrix (DMM) to young adult levels
